According to patent US10004754B2, “ANP fragment adjuvant therapy to standard of care (SOC) diuretic treatment” (MADELEINE PHARMACEUTICALS PTY LTD, priority 2014, dated 2018):
Where no end group is shown, it is not given here.

How the values were obtained:
stable CHF patients [1] = assay: Blood pressure during and after continuous sc VSDL infusion, Example 2; format: in vivo, human; settings: for average drop in blood pressure, diastolic / average drop in blood pressure, systolic: during the 24 hour time period; for mean drop in blood pressure, diastolic / mean drop in blood pressure, systolic: throughout the 12 hour infusion period
Description: (§1) A second study was conducted with a population of eighteen (18) test adult CHF patients, both male and female, in order to further evaluate the improvement in renal and cardiac function in stable CHF patients given VSDL (by sc administration) in addition to standard of care (SOC) treatment.
(§2) Participants were selected on the basis of the Inclusion and Exclusion criteria given in Example 1. […] In addition, selected patients were required to have a plasma brain natriuretic peptide (BNP) concentration of ≥100 pg/mL and a GFR ≥25 mL/min and <70 mL/min as calculated by the Cockroft Gault calculation (ie moderate renal impairment). On the other hand, the presence of acute MI (ie as indicated by ST elevation and/or elevation of Troponin-T) or evidence of MI or other high risk acute coronary syndrome within the past 6 weeks, hypotension (ie systolic blood pressure (SBP) <90 mmHg), persistent and/or uncontrolled hypertension (SBP>180 mmHg), cardiogenic shock or any other clinical condition that would contraindicate administration of an agent with potent vasodilatory effects, excluded patients from participating in the study. Participants in this study also had standard exclusion criteria that accompany pulmonary artery (SG) catheterisation.
(§3) The study was an open-label, sequential group, continuous sc infusion study conducted at a single centre. Two steady-state concentration levels (Css) of VSDL were targeted, approximately 10 ng/mL (n=2 lead-in, and n=10, cohort 1) and 20 ng/mL (n=6, cohort 2). The two lead-in patients were treated with similar dose regimens to confirm that the measured plasma concentrations were in agreement with the targeted Css. Two patients from cohort 1 and all 6 patients from cohort 2 underwent pulmonary artery Swan-Ganz (SG) catheterisation to enable haemodynamic monitoring.
(§4) VSDL prepared as described in Example 1, was administered via sc 6 or 12 hour infusion into the lower abdomen at a maximum volume rate of 350 μL/hr (ie approximately 6 μL/min). The rate of infusion of VSDL for the targeted Css level of 10 ng/mL was either 900 μg/hr (0.3 mL/hr) for 12 hrs or a bimodal infusion of 900 μg/hr for 5 hrs followed by 550 μg/hr (0.18 mL/hr) for 7 hrs. The rate of infusion of VSDL for the targeted Css level of 20 ng/mL was bimodal; 1800 μg/hr (0.20 mL/hr) for 5 hrs followed by 1100 μg/hr (0.12 mL/hr) for 7 hrs (see WO 2014/138796). For the lead-in patients, the infusions were performed at 900 μg/hr for 6 hrs.
(§5) R Studio (version 4) and GraphPad Prism (GraphPad Software, version 6) were used for all statistical analyses. Statistically significant changes from base line for all parameters were tested using with linear mixed effects model or one-way repeated measures ANOVA with Bonferroni correction. A p value of 0.05 was set for statistically significant differences. All data are reported as mean±s.d or mean (95% CI).

stable CHF patients [2] = assay: Renal function (eGFR, plasma creatinine, MAG3 clearance) with sc VSDL infusion, Example 2; format: in vivo, human; settings: for Plasma Creatinine % Change: given without sign, a decrease; for Plasma Creatinine: baseline 161.7 ± 58; for MAG3 Clearance % change: Post-Treatment vs Pre-Treatment
Description: as §1, §2, §3, §4, §5
This change was also accompanied by a 10% decrease in plasma creatinine from 162±58 μmol/L at baseline to […] (p≤0.05) during infusion (Table 6).

[3] = lead-in patients, 900 μg/hr sc for 6 hours
[4] = lead-in patients, 900 μg/hr sc for 6 hours, up to 24 hours post infusion
[5] = patients with baseline blood pressures ≤105/60 mmHg, during the infusion

EVVPPQVLSEPNEEAGAALSPLPEVPPWTGEVSPAQR [VSDL]
Diastolic Blood Pressure (stable CHF patients [1]; 10 ng/ml cohort, 0.5-6 hs, baseline 61 ± 8): 64 ± 8 mmHg | Systolic Blood Pressure (stable CHF patients [1]; 10 ng/ml cohort, 0.5-6 hs, baseline 116 ± 10): 121 ± 11 mmHg | Diastolic Blood Pressure (stable CHF patients [1]; 10 ng/ml cohort, >6-12 hs, baseline 61 ± 8): 65 ± 7 mmHg | Systolic Blood Pressure (stable CHF patients [1]; 10 ng/ml cohort, >6-12 hs, baseline 116 ± 10): 125 ± 10 mmHg | Diastolic Blood Pressure (stable CHF patients [1]; 10 ng/ml cohort, >12-24 hs, baseline 61 ± 8): 62 ± 7 mmHg | Systolic Blood Pressure (stable CHF patients [1]; 10 ng/ml cohort, >12-24 hs, baseline 116 ± 10): 118 ± 10 mmHg | average drop in blood pressure, diastolic (stable CHF patients [1]; 10 ng/ml cohort): −5 mmHg | average drop in blood pressure, systolic (stable CHF patients [1]; 10 ng/ml cohort): −8 mmHg | mean drop in blood pressure, diastolic (stable CHF patients [1]; 10 ng/ml cohort): −6 mmHg | mean drop in blood pressure, systolic (stable CHF patients [1]; 10 ng/ml cohort): −8 mmHg | Diastolic Blood Pressure (stable CHF patients [1]; 20 ng/ml cohort, 0.5-6 hs, baseline 71 ± 12): 66 ± 6 mmHg | Systolic Blood Pressure (stable CHF patients [1]; 20 ng/ml cohort, 0.5-6 hs, baseline 124 ± 21): 116 ± 17 mmHg | Diastolic Blood Pressure (stable CHF patients [1]; 20 ng/ml cohort, >6-12 hs, baseline 71 ± 12): 67 ± 6 mmHg | Systolic Blood Pressure (stable CHF patients [1]; 20 ng/ml cohort, >6-12 hs, baseline 124 ± 21): 118 ± 20 mmHg | Diastolic Blood Pressure (stable CHF patients [1]; 20 ng/ml cohort, >12-24 hs, baseline 71 ± 12): 64 ± 6 mmHg | Systolic Blood Pressure (stable CHF patients [1]; 20 ng/ml cohort, >12-24 hs, baseline 124 ± 21): 116 ± 21 mmHg | average drop in blood pressure, diastolic (stable CHF patients [1]; 20 ng/ml cohort): −8 mmHg | average drop in blood pressure, systolic (stable CHF patients [1]; 20 ng/ml cohort): −13 mmHg | mean drop in blood pressure, diastolic (stable CHF patients [1]; 20 ng/ml cohort): −7 mmHg | mean drop in blood pressure, systolic (stable CHF patients [1]; 20 ng/ml cohort): −14 mmHg | drops in mean blood pressures from baseline, based on post infusion time (stable CHF patients [1]; all VSDL-treated patients, p=0.4): no significant drops | systolic and diastolic blood pressures, regression on concentration of VSDL (stable CHF patients [1]; at higher VSDL concentrations, p=0.005, FIGS. 5A and B): significant decrease | change in blood pressure (stable CHF patients [1]; [3]): no significant change | mean diastolic blood pressure (stable CHF patients [1]; [4]): 66±3 mmHg | mean systolic blood pressure (stable CHF patients [1]; [4]): 114±6 mmHg | Diastolic Blood Pressure (stable CHF patients [1]; patients with BP ≤ 105 mmHg, 0.5-6 hs, baseline 57 ± 6): 61 ± 7 mmHg | Systolic Blood Pressure (stable CHF patients [1]; patients with BP ≤ 105 mmHg, 0.5-6 hs, baseline 97 ± 8): 106 ± 17 mmHg | Diastolic Blood Pressure (stable CHF patients [1]; patients with BP ≤ 105 mmHg, >6-12 hs, baseline 57 ± 6): 64 ± 8 mmHg | Systolic Blood Pressure (stable CHF patients [1]; patients with BP ≤ 105 mmHg, >6-12 hs, baseline 97 ± 8): 113 ± 25 mmHg | Diastolic Blood Pressure (stable CHF patients [1]; patients with BP ≤ 105 mmHg, >12-24 hs, baseline 57 ± 6): 62 ± 6 mmHg | Systolic Blood Pressure (stable CHF patients [1]; patients with BP ≤ 105 mmHg, >12-24 hs, baseline 97 ± 8): 109 ± 20 mmHg | drop in blood pressures (stable CHF patients [1]; patients with baseline blood pressures ≤105/60 mmHg): no significant drop | average blood pressure drop, diastolic (stable CHF patients [1]; [5]): −3 mmHg | average blood pressure drop, systolic (stable CHF patients [1]; [5]): −4 mmHg | Plasma Creatinine % Change (stable CHF patients [2]; >0.5-6 hs vs baseline): (8) % | Plasma Creatinine (stable CHF patients [2]; >0.5-6 hs): 148.5 ± 60 µmol/L | Plasma Creatinine % Change (stable CHF patients [2]; >6-12 hs vs baseline): (10) % | Plasma Creatinine (stable CHF patients [2]; >6-12 hs): 146 ± 60 µmol/L | eGFR and plasma creatinine in relation to plasma concentration of VSDL (stable CHF patients [2]; FIGS. 6A and B): improved with rising circulating levels of VSDL | MAG3 Clearance, Post (Pre-Treatment) (stable CHF patients [2]; Stage 3A CKD): 14 ± 7 ml/min/1.73 m^2 | MAG3 Clearance % change (stable CHF patients [2]; Stage 3A CKD): (9) % | MAG3 Clearance (stable CHF patients [2]; Stage 3A CKD, Post-Treatment, Pre-Treatment 148.5 ± 26): 162.5 ± 24 ml/min/1.73 m^2 | MAG3 Clearance, Post (Pre-Treatment) (stable CHF patients [2]; Stage 3B CKD): .3 ± 9 ml/min/1.73 m^2 | MAG3 Clearance % change (stable CHF patients [2]; Stage 3B CKD): (0) % | MAG3 Clearance (stable CHF patients [2]; Stage 3B CKD, Post-Treatment, Pre-Treatment 164.5 ± 32): 164.8 ± 33 ml/min/1.73 m^2 | MAG3 Clearance, Post (Pre-Treatment) (stable CHF patients [2]; Stage 4 CKD): 17 ± 16 ml/min/1.73 m^2 | MAG3 Clearance % change (stable CHF patients [2]; Stage 4 CKD): (16) % | MAG3 Clearance (stable CHF patients [2]; Stage 4 CKD, Post-Treatment, Pre-Treatment 106.0 ± 58): 123.3 ± 56 ml/min/1.73 m^2 | eGFR and MAG3 clearance across all classes of CKD (stable CHF patients [2]; adjuvant treatment with VSDL): numerical increases | MAG3 Clearance, Post (Pre-Treatment) (stable CHF patients [2]; all patients): 9 ± 12 ml/min/1.73 m^2 | MAG3 Clearance % change (stable CHF patients [2]; all patients): (6) % | MAG3 Clearance (stable CHF patients [2]; all patients, Post-Treatment, Pre-Treatment 140.3 ± 44): 148.9 ± 41 ml/min/1.73 m^2 | decrease in plasma creatinine (stable CHF patients [2]; during infusion vs baseline): 10% | improvement in eGFR (stable CHF patients [2]; during the 12 hour infusion vs baseline): 16% | estimated glomerular filtration rate (eGFR) (stable CHF patients [2]; during the 12 hour infusion, baseline 38±11, p≤0.05): 44±14 ml/min/1.73 m^2 | eGFR % Change (stable CHF patients [2]; eGFR 15-29 (Stage 4 CKD), >0.5-6 hs vs baseline): (23) % | eGFR (stable CHF patients [2]; eGFR 15-29 (Stage 4 CKD), >0.5-6 hs, baseline 23.5 ± 5): 28.8 ± 10 ml/min/1.73 m^2 | eGFR (stable CHF patients [2]; eGFR 15-29 (Stage 4 CKD), >6-12 hs, baseline 23.5 ± 5): 30 ± 12 ml/min/1.73 m^2 | eGFR % Change (stable CHF patients [2]; eGFR 30 to 44 (Stage 3B CKD), >0.5-6 hs vs baseline): (12) % | eGFR (stable CHF patients [2]; eGFR 30 to 44 (Stage 3B CKD), >0.5-6 hs, baseline 37.7 ± 4): 42.3 ± 10 ml/min/1.73 m^2 | eGFR % Change (stable CHF patients [2]; eGFR 30 to 44 (Stage 3B CKD), >6-12 hs vs baseline): (12) % | eGFR (stable CHF patients [2]; eGFR 30 to 44 (Stage 3B CKD), >6-12 hs, baseline 37.7 ± 4): 42.3 ± 10 ml/min/1.73 m^2 | eGFR % Change (stable CHF patients [2]; eGFR 45-59 (Stage 3A CKD), >0.5-6 hs vs baseline): (8) % | eGFR (stable CHF patients [2]; eGFR 45-59 (Stage 3A CKD), >0.5-6 hs, baseline 49.8 ± 3): 54.0 ± 4 ml/min/1.73 m^2 | eGFR % Change (stable CHF patients [2]; eGFR 45-59 (Stage 3A CKD), >6-12 hs vs baseline): (14) % | eGFR (stable CHF patients [2]; eGFR 45-59 (Stage 3A CKD), >6-12 hs, baseline 49.8 ± 3): 56.6 ± 4 ml/min/1.73 m^2 | renal function (eGFR, MAG3 clearance, plasma creatinine), trend (stable CHF patients [2]; [3]): improved renal function | eGFR % Change (stable CHF patients [2]; patients with eGFR 15-60, >0.5-6 hs vs baseline): (12) % | eGFR (stable CHF patients [2]; patients with eGFR 15-60, >0.5-6 hs, baseline 37.9 ± 11): 42.6 ± 13 ml/min/1.73 m^2 | eGFR % Change (stable CHF patients [2]; patients with eGFR 15-60, >6-12 hs vs baseline): (16) % | eGFR (stable CHF patients [2]; patients with eGFR 15-60, >6-12 hs, baseline 37.9 ± 11): 43.8 ± 14 ml/min/1.73 m^2 | MAG3 Clearance (stable CHF patients [2]; post-treatment, pre-treatment 140±44, p≤0.05): 149±41 ml/min/1.73 m^2
